# Source: patent US10493100B2, “Pharmaceutical composition for preventing or treating brain cancer including crystal polymorph of tetraarsenic hexoxide, and method for preparing same” (CHEMAS CO., LTD., priority 2016, dated 2019)
# Tests used:
# [1] = test system: gliomatosis cerebri; test: Clinical Test-1: patient; format: in vivo, human
# Method: (§1) The following clinical tests were conducted using the composition of Example 1.
# From the 10th day after the diagnosis, mobility weakening and trembling symptoms of both arms began to appear and then proceeded rapidly. […] Pre-treatment MRI images of this patient are shown in FIG. 4, and MRI images after two months and three months of radiotherapy together with administration of Example 1 are shown in FIGS. 5 and 6, respectively.
# [2] = Weight measurement in animal models transplanted with human brain glioblastoma cell line; format: in vivo, Balb/C female nude mice
# Method: (§2) The human brain glioblastoma cell line U-87MG (purchased from ATCC) was incubated in Eagle's Minimum Essential Medium (EMEM) supplemented with 10% FBS, 100 U/ml penicillin, and 100 μg/ml streptomycin in an incubator under conditions of 37° C., 5% CO2, and 95% air. The medium was exchanged every three days.
# (§3) The U-87MG cells labeled with luciferase were inoculated into the primary site of the brain in […] Balb/C female nude mice weighing 16-19 g, and the amount of cells inoculated was 5×10^5/5 uL. The animals were subjected to imaging examinations on the 6th day after the inoculation, when the surgical sites of the animals were restored and the tumor cells were slightly grown. The animals were randomly divided into two groups, four animals for each group, according to the imaging results. A test group was administered with a solution containing Example 1 dissolved in physiological saline (0.9% NaCl), and a control group was administered with only physiological saline, which is a solvent used for the test group. The animals of the two groups were administered once daily with physiological saline or 2.25 mg/kg Example 1. The dose was 10 uL/g on the basis of the weight of the animals. During the administration, the weight and health conditions of the animals were continuously monitored, and at the same time, the animals were subjected to image examination.
# [3] = test system: U-87MG cells labeled with luciferase; test: In vivo efficacy test, tumor imaging signal in animal models transplanted with human brain glioblastoma cell line; set-up: species or system Balb/C female nude mice; settings: 2.25 mg/kg once daily
# Method: as §2, §3
# [4] = test system: human brain glioblastoma cell line U-87MG; test: Cell proliferation assay (MTT assay), U-87MG; format: cell-based
# Method: (§4) Fetal bovine serum (FBS) and cell culture medium were prepared (Hyclone), and dimethyl sulfoxide (DMSO) and 3-(4,5-dimetyl-thiazol-2yl)-2,5-diphenyltetrazolium bromide (MTT, Amresco LLC, USC) were prepared.
# (§5) As human cancer cell lines, human brain glioblastoma cell lines U-87MG and U-118MG were obtained from the Shanghai Cell Bank of Chinese Academy of Sciences. The cells were incubated in Eagle's Minimum Essential Medium (EMEM), supplemented with 10% FBS, 100 U/ml penicillin, and 100 μg/ml streptomycin according to the culture condition, in a humidified incubator with 5% CO2 and 95% air. The medium was exchanged every three days.
# (§6) The effects of Example 1 and Comparative Examples 1 to 3 on cell proliferation were assessed using MTT assay. MTT assay is based on the ability of viable cells against MTT to produce insoluble dark blue formazan products. After the cells were suspended in the medium by trypsin treatment and collected, the cells were dispensed at a density of 4×10^3 cells/well in a 96-well culture dish (Costar, Cambridge, Mass., USA). After 24 hours, Example 1 and Comparative Examples 1 to 3 as treatment samples were added, at 0, 0.625, 1.25, 2.5, 5, 10, 20, 40, or 80 μM, to the cells in the media containing 10% FBS, and then the cells were incubated. […] All the crystals were completely dissolved by standing at room temperature for 15 minutes, and the absorbance was measured using a micro-plate reader at a wavelength of 570 nm (A570 nm).
# (§7) The absorbance value of the control group treated without the sample was calculated as 100, and the absorbance value of the treatment group treated with the sample, compared with that of the control group, was calibrated, and the percentage of inhibition of cell proliferation was calculated according to the following equation. Percentage (%) of inhibition of cell proliferation=((mean absorbance of control group cells−mean absorbance of treatment group cells)/mean absorbance of control group cells)×100
# (§8) All data were expressed as mean±standard error of the mean (mean±SEM). […]
# [5] = test system: human brain glioblastoma cell line U-118MG; test: Cell proliferation assay (MTT assay), U-118MG; format: cell-based
# Method: as §4, §5, §6, §7, §8
# [6] = test system: glioblastoma in the left parieto-temporal lobe; test: Clinical Test-2: patient; format: in vivo, human; settings: after surgery, radiotherapy and Tremodal
# Method: as §1
# This patient with symptoms of headache, vomiting, diplopia, and visual field defect was diagnosed with glioblastoma in the left parieto-temporal lobe. On the 3rd day after the diagnosis, tumor removal was conducted by surgery, and the tumor was confirmed as glioblastoma of the WHO grade IV/IV as a result of pathologic diagnosis. Radiotherapy with Tremodal treatment (61.2 Gy/33fx) was performed from the 45th day to the 90th day after the diagnosis. The remaining tumors were still confirmed on MRI images after the radiotherapy and Tremodal treatment. From the 95th day after the diagnosis, 5 mg of Example 1 was administered three times a day for 17 months. […] The pre-treatment MRI images of this patient are shown in FIG. 7, and MRI images after the surgery and radiotherapy are shown in FIG. 8. Respective images after four months, seven months, and ten months of administration of Example 1 are shown in FIGS. 9A, 9B, and 9C, respectively.
# [7] = from the 7th day of administration (FIG. 10A)
# [8] = compared with Comparative Example 2 or 3 (4:1 or 1:1 mixtures)
substance,measurement,setting,value
tetraarsenic hexoxide [Example 1],mobility weakening and trembling symptoms,"[1]; 15 mg per day from the 17th day after the diagnosis, before radiotherapy",began to improve
same,symptoms,[1]; 15 mg per day together with radiotherapy from the 27th to the 75th day after the diagnosis,the symptoms disappeared completely
same,tumor size on MRI images,[1]; after three months of radiotherapy together with administration (FIG. 6),tumors almost disappeared
same,tumor size on MRI images,[1]; after two months of radiotherapy together with administration (FIG. 5),tumor sizes were reduced
same,Body change 9 days after the first administration,[2]; 2.25 mg/kg once daily,-0.8 g
same,Weight 9 days after the first administration,"[2]; 2.25 mg/kg once daily, mean ± SEM, 4 animals",16.1 ± 0.5 g
same,weight after 9 days of drug administration (in words),"[2]; 2.25 mg/kg once daily, control group largely reduced",almost unchanged weight
same,Weight before administration,"[2]; test group, mean ± SEM, 4 animals, baseline",16.9 ± 0.2 g
same,luminescence signal intensities due to the proliferation and metastasis of tumors,"[3]; 7th and 9th days of administration (FIG. 10B), control group vs test group",in the control group were much stronger than those in the test group
same,tumor signal intensities,[3]; [7],significantly light
same,tumor signals in the spine (tumor metastasis into the spine),[3]; [7],hardly observed in the spine
same,percentage of inhibition of brain glioblastoma cell proliferation,[4]; [8],higher
same,percentage of inhibition of brain glioblastoma cell proliferation,"[4]; incubation 48 hours (FIG. 2A), compared with Comparative Example 1",higher
same,percentage of inhibition of brain glioblastoma cell proliferation,"[4]; incubation 72 hours (FIG. 2B), compared with Comparative Example 1",higher
same,percentage of inhibition of brain glioblastoma cell proliferation,[5]; [8],higher
same,percentage of inhibition of brain glioblastoma cell proliferation,"[5]; incubation 48 hours (FIG. 3A), compared with Comparative Example 1",higher
same,percentage of inhibition of brain glioblastoma cell proliferation,"[5]; incubation 72 hours (FIG. 3B), compared with Comparative Example 1",higher
same,sizes of remaining tumors (MRI),[6]; 5 mg three times a day for 17 months,confirmed to decrease
same,subjective symptoms,"[6]; 5 mg three times a day, from 2 months of administration",no subjective symptom
